Source: patent publication US20200397718A1, “USE OF HYDROXYTYROSOL ACETATE IN IMPROVING FUNCTION OF AORTIC ENDOTHELIAL CELL” (XI'AN JIAOTONG UNIVERSITY, priority 2019, published 2020)

Assays:
[1] = system: IL-6, MMP-1, ICAM-1 and PAI-1 mRNA in human aortic endothelial cells; test: mRNA levels of IL-6, MMP-1, ICAM-1 and PAI-1 (RT-PCR) in palmitic acid-induced inflammation of HAECs; format: cell-based
Experimental: (§1) Human aortic endothelial cells (HAECs) were purchased from Shanghai Shanghai Bioleaf Biotech Co., Ltd. Palmitic acid (PA) was purchased from SIGMA Company. A palmitic acid solution having a concentration of 500 μM was prepared by dissolving palmitic acid in water. A cell culture incubator was adopted to culture the cells in a temperature-constant, humidified, sterile condition. The cells were cultured in wells of culture plates at an atmosphere of 95% air and 5% CO2 at 37° C. in the incubator. The experiments were performed on different experimental groups of cells. The experiments were performed on three experimental groups of cells: (1) control group; (2) 500 μM palmitic acid treatment group; and (3) hydroxytyrosol acetate protection group.
(§2) The HAECs that were previously cultured in a 12-well cell culture plate were divided into 5 different experimental groups and respectively applied with hydroxytyrosol acetate in respective concentrations, 0 μM, 0 μM, 10 μM, 50 μM, and 100 μM, all followed with an 24-hour incubation. Then, the last 4 groups of cells were respectively applied with 500 μM palmitic acid, the first was not, all followed with another 24-hour incubation. The detecting of mRNA levels corresponding to interleukin-6 (IL-6), matrix metalloproteinase-1 (MMP-1), intercellular adhesion molecule-1 (ICAM-1) and plasma plasminogen activator inhibitor-1 (PAI-1) were respectively carried out on each group of cells by using reverse transcription RNA and real-time quantitative polymerase chain reaction (PCR), and the specific method is as follows:
The medium for cell culture in the wells was removed. 500 μL of TRIzol™ reagent was added to each well, and the culture plate was then shaken at room temperature for 5 minutes. Then the cells in the wells were collected and transferred to a 1.5 mL Eppendorf® (EP) tube. 200 μl (taking ⅕ of total volume of the substance in the EP tube) of chloroform was then added to the EP tube for extraction of protein. […] The concentration of the solution was measured by an ultraviolet spectrophotometer. […]

[2] = system: interleukin-6 (IL-6) mRNA; test: mRNA level corresponding to IL-6 (RT-PCR) in HAECs; format: cell-based, human; conditions: 500 μM palmitic acid, 24 h
Experimental: as §1, with “The experiments were performed on three experimental groups of cells: (1) control group; (2) 500 μM palmitic acid treatment group; and (3) hydroxytyrosol acetate protection group.” left out
as §2, with “Then, the last 4 groups of cells were respectively applied with 500 μM palmitic acid, the first was not, all followed with another 24-hour incubation.” left out
(§3) The medium for cell culture in the wells was removed. […] The concentration of the solution was measured by an ultraviolet spectrophotometer. […]

[3] = system: matrix metalloproteinase-1 (MMP-1) mRNA; test: mRNA level corresponding to MMP-1 (RT-PCR) in HAECs; format: cell-based, human; conditions: 500 μM palmitic acid, 24 h
Experimental: as §1, with “The experiments were performed on three experimental groups of cells: (1) control group; (2) 500 μM palmitic acid treatment group; and (3) hydroxytyrosol acetate protection group.” left out
as §2, with “Then, the last 4 groups of cells were respectively applied with 500 μM palmitic acid, the first was not, all followed with another 24-hour incubation.” left out
as §3

[4] = system: reactive oxygen species in human aortic endothelial cells; test: Detection of reactive oxygen species (H2DCF-DA) in HAECs; format: cell-based
Experimental: as §1
The cultured HAECs were divided into 3 different experimental groups, the control (Ctrl) group, the PA group, and the hydroxytyrosol acetate+PA (HTac+PA) group. The cells of the HTac+PA group were applied with hydroxytyrosol acetate in a concentration of 100 μM followed with a 24-hour incubation. Then, the cells of both the PA group and the HTac+PA group were applied with 500 μM palmitic acid, all followed with another 24-hour incubation.
After treating the cells with hydroxytyrosol acetate and palmitic acid, and discarding the medium, the cells were rinsed once with PBS. […] The supernatant was collected and measured by a microplate reader.

[5] = system: mitochondrial membrane fusion-related proteins Mfn1, Mfn2; test: Western blot of mitochondrial membrane fusion-related proteins in HAECs; format: cell-based, human
Experimental: as §1, with “group. […]” for “group.”
The medium for cell culture in the wells was removed. […] The supernatants were collected, and the proteins therein were quantified by bicinchoninic acid (BCA) assay, and normalized. […]
10 μg of the extracted proteins were subjected to gel electrophoresis with 10% acrylamide gel, and electrophoretic transferred onto a PVDF membrane, which were blocked, and incubated with a primary antibody at 4° C. overnight, free primary antibody was washed away. […] Target proteins were detected by chemiluminescence.

[6] = system: human aortic endothelial cells (HAECs); test: MTT assay, relative cell viability of human aortic endothelial cells; format: cell-based
Experimental: as §1
The HAECs that were previously cultured in a 12-well cell culture plate were divided into 4 different experimental groups and respectively applied with hydroxytyrosol acetate in different concentrations, 0 μM, 10 μM, 50 μM, and 100 μM, all followed with an 24-hour incubation. […]
An MTT assay was performed to all groups of cells. […] The absorbance was measured at a wavelength of 490 nm in a spectrophotometer. The absorbance of this colored solution can be quantified by measuring at a certain wavelength (usually between 500 and 600 nm) by a spectrophotometer.

[7] = 100 μM, 24 h pre-treatment, then 500 μM palmitic acid 24 h

| Molecule | inflammatory cytokines IL-6, MMP-1, ICAM-1 and PAI-1 versus control group ([1]; 500 μM palmitic acid, 24 h) | increase of mRNA level corresponding to IL-6 versus control [2] | increase of mRNA level corresponding to MMP-1 versus control [3] | production of reactive oxygen species ROS ([4]; 500 μM palmitic acid, 24 h) | expression of mitochondrial membrane fusion-related proteins Mfn1, Mfn2 ([5]; 500 μM palmitic acid, 24 h) | proliferation of human aortic endothelial cells ([6]; 100 μM hydroxytyrosol acetate, 24 h) | toxic and side effects on human aortic endothelial cells ([6]; HAECs, 0-100 μM, FIG. 1) | inhibition of the palmitic acid-induced inflammatory response (mRNA IL-6, MMP-1, ICAM-1, PAI-1) ([1]; 50 μM, 24 h pre-treatment, then 500 μM palmitic acid 24 h) | inhibitory effect on the palmitic acid-induced inflammatory response (mRNA IL-6, MMP-1, ICAM-1, PAI-1) ([1]; 100 μM, 24 h pre-treatment, then 500 μM palmitic acid 24 h, compared with 50 μM) | production of excessive reactive oxygen species induced by palmitic acid [4, 7] | expression of Mfn2 [5, 7] |
| --- | --- | --- | --- | --- | --- | --- | --- | --- | --- | --- | --- |
| CCCCCCCCCCCCCCCC(=O)O [palmitic acid, reference compound] | significantly higher | about 20 times | about 10 times | a large amount | reducing |  |  |  |  |  |  |
| hydroxytyrosol acetate |  |  |  |  |  | promoted | no toxic and side effects | significant inhibition | more obvious | significantly inhibit | significantly increasing |
